How the values were obtained:
[1] = Stability of the solid form, conversion between polymorphs; type: physicochemical; conditions: for stability of the polymorphic form: hydrochloride
[2] = Thermal decomposition on drying by heating; type: physicochemical; conditions: drying through heating to release residual solvents
GLYT-1 = target: T1, GLYT-1 (Homo sapiens, UniProt P48067); conditions: in vitro; cited from earlier work
T1 sequence (P48067 1-706): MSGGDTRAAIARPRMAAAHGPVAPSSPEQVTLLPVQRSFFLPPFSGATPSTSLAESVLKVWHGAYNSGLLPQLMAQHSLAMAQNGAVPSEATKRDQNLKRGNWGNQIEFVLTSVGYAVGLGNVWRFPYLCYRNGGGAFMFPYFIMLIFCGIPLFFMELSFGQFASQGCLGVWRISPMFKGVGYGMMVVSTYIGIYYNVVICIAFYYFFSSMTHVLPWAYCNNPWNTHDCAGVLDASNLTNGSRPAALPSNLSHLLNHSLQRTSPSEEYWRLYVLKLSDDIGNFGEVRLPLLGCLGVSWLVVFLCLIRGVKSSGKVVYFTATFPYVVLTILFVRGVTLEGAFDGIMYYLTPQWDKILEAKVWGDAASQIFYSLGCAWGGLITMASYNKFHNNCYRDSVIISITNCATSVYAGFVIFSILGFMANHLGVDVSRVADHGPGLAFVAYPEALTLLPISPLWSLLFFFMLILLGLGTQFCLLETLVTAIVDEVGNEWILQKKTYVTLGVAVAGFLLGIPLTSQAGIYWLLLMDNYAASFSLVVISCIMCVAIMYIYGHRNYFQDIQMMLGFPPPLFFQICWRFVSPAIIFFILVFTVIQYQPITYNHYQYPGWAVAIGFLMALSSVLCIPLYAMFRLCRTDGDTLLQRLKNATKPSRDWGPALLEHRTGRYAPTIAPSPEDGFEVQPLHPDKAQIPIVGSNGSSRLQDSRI

NMDA receptor = conditions: cited from earlier work
c-Fos immunoreactivity = conditions: in vivo; cited from earlier work
DBA/2J mice = conditions: strain with low basal pre-pulse inhibition; cited from earlier work
[3] = test system: hippocampal dentate gyrus; conditions: induced by high-frequency electrical stimulation of the afferent perforant pathway; cited from earlier work

## Cl.O=C(N[C@@H](c1ccccc1)[C@@H]1CC2CCN1CC2)c1c(Cl)ccc(C(F)(F)F)c1Cl [Form A, N—[(S)-2(S)-1-azabicyclo[2.2.2]oct-2-yl(phenyl)methyl]-2,6-dichloro-3-(trifluoromethyl)benzamide hydrochloride]
[1]; listed as polymorph A
  stability of the polymorphic form: highly stable
[2]
  temperature above which thermal decomposition of the compound occurs: above 220 °C

## Cl.O=C(N[C@@H](c1ccccc1)[C@@H]1CC2CCN1CC2)c1c(Cl)ccc(C(F)(F)F)c1Cl [Form B, N—[(S)-2(S)-1-azabicyclo[2.2.2]oct-2-yl(phenyl)methyl]-2,6-dichloro-3-(trifluoromethyl)benzamide hydrochloride]
[1]; aqueous system
  conversion to polymorph A: readily converts to the desired polymorph A
[1]
  stability of the polymorphic form: lower stability than Form A
Solubility in water
  solubility: > 200 mg/mL
Solubility in water; 45° C.
  solubility in water: highly soluble in water

## CN(CCC(Oc1ccc(-c2ccccc2)cc1)c1ccc(F)cc1)CC(=O)O (single isomer, unassigned; (+)) [(+)-NFPS, (+)N-[3-(4′-fluorophenyl)-3-(4′-phenylphenoxy)-propyl]sarcosine]
GLYT-1
  activity relative to the racemic compound: greater than 10 fold
NMDA receptor
  NMDA-induced [3H]GABA release: significantly stimulated
c-Fos immunoreactivity
  pattern of c-Fos immunoreactivity: comparable with the atypical anti-psychotic clozapine
DBA/2J mice
  pre-pulse inhibition of the acoustic startle response: enhanced

## CN(CCC(Oc1ccc(-c2ccccc2)cc1)c1ccc(F)cc1)CC(=O)O (racemic) [(+/−)-NFPS, N-[3-(4′-fluorophenyl)-3-(4′-phenylphenoxy)propyl]sarcosine]
[3]
  long-term potentiation: significantly enhanced

Source: patent US20120022099A1, “NOVEL POLYMORPHIC FORMS OF AN AZABICYCLO-TRIFLUOROMETHYL BENZAMIDE DERIVATIVE” (SANOFI, priority 2008, published 2012)
